US11834454B2, “Alkynylphenylbenzamide compounds and applications thereof” (SHENZHEN NEWDEL BIOTECH CO., LTD., priority 2021, dated 2023)
One block for each compound: values may come before it.

How the values were obtained:
BaF3-ETV6-NTRK3-F617L = biological target: T1, BaF3-ETV6-NTRK3-F617L (Homo sapiens, UniProt Q16288, F617L); test: Drug-resistant cell proliferation inhibition (CCK-8); type: cell-based, mouse; conditions: 72 hours, read-out: drug-resistant cell viability IC50
T1 construct: constructed pCDNA3.1(+) plasmid vector carrying genes such as; fused on or other part: P41212 (Transcription factor ETV6)
Description: BaF3 cells (mouse pre-B cells) used in this experiment were purchased from Japan Cell Bank, all of the monoclonal stable strains, BaF3-CD74-NTRK1-G667C, BaF3-CD74-NTRK1-F589L, BaF3-CD74-NTRK1-G595R, BaF3-CD74-NTRK1-G667A, BaF3-CD74-NTRK1-V573M, BaF3-ETV6-NTRK2-G639R, BaF3-ETV6-NTRK2-G709C, BaF3-ETV6-NTRK2-V617M, BaF3-ETV6-NTRK2-F633L, BaF3-ETV6-NTRK3-G696C, BaF3-ETV6-NTRK3-G696A, BaF3-ETV6-NTRK3-G623R, BaF3-ETV6-NTRK3-G623E, BaF3-ETV6-NTRK3-F617L and BaF3-ETV6-NTRK3-V601M were constructed by our laboratory, and were identified by experiments such as positive control, protein expression and gene sequencing.
The brief steps for stable strains construction were as follows: constructed pCDNA3.1(+) plasmid vector carrying genes such as BaF3-CD74-NTRK1-G667C, BaF3-CD74-NTRK1-F589L, BaF3-CD74-NTRK1-G595R, BaF3-CD74-NTRK1-G667A, BaF3-CD74-NTRK1-V573M, BaF3-ETV6-NTRK2-G639R, BaF3-ETV6-NTRK2-G709C, BaF3-ETV6-NTRK2-V617M, BaF3-ETV6-NTRK2-F633L, BaF3-ETV6-NTRK3-G696C, BaF3-ETV6-NTRK3-G696A, BaF3-ETV6-NTRK3-G623R, BaF3-ETV6-NTRK3-G623E, BaF3-ETV6-NTRK3-F617L and BaF3-ETV6-NTRK3-V601M; the plasmid was electroporated into Ba/F3 cells using Amaxa® Cell Line Nucleofector® Kit V; 48 hours after of electroporation, geneticin (G418) with a final concentration of 1000 μg/mL was added to screen for two weeks, and the interleukin 3 (IL3) was removed to continue screening to obtain polyclonal stable strains; and then single clones were selected by limiting dilution method; the stable strains were then identified by the positive drugs, Western Blot (WB), and gene sequencing; the correct monoclonal through identification can be used to study the cell proliferation inhibitory activity of the inhibitors.
Cell proliferation inhibitory activity study: The cells in logarithmic growth phase were seeded into 96-well plates at 8000-12000 cells/well, and the inhibitors at different concentrations of (0-10 μM) were added the next day, and the culture was continued for 72 hours; then 10 μL of Cell Counting Kit-8 Cell Counting Reagent (CCK-8 Reagent) was added to each well, and continued to incubate for 1-3 hours; then its absorbance at 450 nm and 650 nm were measured with a super microplate reader. The median inhibitory concentration (IC50) was calculated using medical graphing software (GraphPad Prism 8.0.0).

BaF3-ETV6-NTRK2 = biological target: T2, BaF3-ETV6-NTRK2 (Homo sapiens, UniProt Q16620); test: Cell proliferation inhibition, Ba/F3-TRKs stable strain (CCK-8); type: cell-based, mouse; conditions: 72 hours, read-out: cell viability IC50 ETV6-NTRK2
T2 construct: fused on or other part: P41212 (Transcription factor ETV6)
How it was run: (§1)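 Mouse Ba/F3 pre-B cells stably expressing CD74-NTRK1, ETV6-NTRK2 or ETV6-NTRK3 fusions and grown without IL3 were seeded at 8000-12000 cells/well.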

BaF3-CD74-NTRK1 = biological target: T3, BaF3-CD74-NTRK1 (Homo sapiens, UniProt P04629); test: as above; type: cell-based, mouse; conditions: 72 hours, read-out: cell viability IC50 CD74-NTRK1
T3 construct: fused on or other part: P04233 (HLA class II histocompatibility antigen gamma chain)
How it was run: as §1

BaF3-ETV6-NTRK3 = biological target: T4, BaF3-ETV6-NTRK3 (Homo sapiens, UniProt Q16288); test: as above; type: cell-based, mouse; conditions: 72 hours, read-out: cell viability IC50 ETV6-NTRK3
T4 construct: fused on or other part: P41212 (Transcription factor ETV6)
How it was run: as §1

PDGFRA = PDGFRA (Homo sapiens, UniProt P16234); test: Kinase selectivity, Z'-LYTE
Method: (§2) Enzymatic reaction: In a 384-well plate, added 5 μL of enzyme-substrate system [50 mM 4-hydroxyethylpiperazineethanesulfonic acid (HEPES) pH 7.5, 0.01% BRIJ-35, 10 mM of magnesium chloride (MgCl2), 1 mM of ethylene glycol bis(2-aminoethyl ether)tetraacetic acid (EGTA), 2 μM of Tyr 01 peptide substrate], transferred 5 nL of compound (concentration gradient) using an Echo520 Ultra-Micro Liquid Pipetting System. […] Shaked and mixed, then centrifuged, and reacted at 30° C. in the dark for 1.5 hours.

[1] = Pharmacokinetic and oral bioavailability tests in SD rats; type: in vivo
Method: Pharmacokinetic and oral bioavailability tests were performed in SD rats. According to the drug's solubility, the drug was administered orally and intravenously as a single dose. Animal blood samples were collected at different time points (0, 0.5, 1, 2, 4, 6, 8, 24 hours), and added with heparin for anticoagulation, then centrifugated to obtain the supernatant. Blood samples were analyzed by HPLC-MS, and DAS2.1 was used for data analysis to detect half-life (T½), maximum blood concentration (Cmax), peak time (Tmax), area under the curve (AUC), and bioavailability (BA) and other pharmacokinetic data.

PDGFRB = PDGFRB (Homo sapiens, UniProt P09619); test: Kinase selectivity, Z'-LYTE
Method: as §2

SRC = SRC (Homo sapiens, UniProt P12931); test: Kinase selectivity, Z'-LYTE
Method: as §2

RET = RET (Homo sapiens, UniProt P07949); test: Kinase selectivity, Z'-LYTE
Method: as §2

Kit = Kit (Homo sapiens, UniProt P10721); test: Kinase selectivity, Z'-LYTE
Method: as §2

[2] = Sprague-Dawley (SD), rat, plasma, intravenous injection, 2.0 mg/kg
[3] = Sprague-Dawley (SD), rat, plasma, oral, 10.0 mg/kg

T4 sequence (Q16288 whole entry, the tested form may be a part): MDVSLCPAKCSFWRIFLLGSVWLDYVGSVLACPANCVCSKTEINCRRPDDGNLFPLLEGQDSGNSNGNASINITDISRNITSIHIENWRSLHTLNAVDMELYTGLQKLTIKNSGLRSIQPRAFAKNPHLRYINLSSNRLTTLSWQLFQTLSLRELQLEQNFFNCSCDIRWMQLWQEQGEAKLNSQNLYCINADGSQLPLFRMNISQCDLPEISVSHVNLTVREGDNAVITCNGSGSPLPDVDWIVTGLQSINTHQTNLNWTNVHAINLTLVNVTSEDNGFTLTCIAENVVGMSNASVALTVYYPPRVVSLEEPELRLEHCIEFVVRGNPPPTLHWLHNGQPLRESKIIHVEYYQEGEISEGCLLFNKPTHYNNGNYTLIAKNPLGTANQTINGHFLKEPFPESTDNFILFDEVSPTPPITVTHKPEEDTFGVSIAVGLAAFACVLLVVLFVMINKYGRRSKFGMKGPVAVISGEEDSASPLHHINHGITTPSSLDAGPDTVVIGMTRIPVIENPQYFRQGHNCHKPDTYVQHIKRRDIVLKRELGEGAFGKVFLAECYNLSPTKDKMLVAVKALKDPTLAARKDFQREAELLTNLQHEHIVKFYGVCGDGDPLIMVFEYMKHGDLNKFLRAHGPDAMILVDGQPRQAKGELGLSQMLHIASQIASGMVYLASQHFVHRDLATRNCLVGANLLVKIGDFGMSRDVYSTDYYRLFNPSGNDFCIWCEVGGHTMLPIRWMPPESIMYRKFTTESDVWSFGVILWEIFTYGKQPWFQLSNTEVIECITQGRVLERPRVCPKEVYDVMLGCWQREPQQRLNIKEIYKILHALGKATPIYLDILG
T3 sequence (P04629 510-796 limits assumed): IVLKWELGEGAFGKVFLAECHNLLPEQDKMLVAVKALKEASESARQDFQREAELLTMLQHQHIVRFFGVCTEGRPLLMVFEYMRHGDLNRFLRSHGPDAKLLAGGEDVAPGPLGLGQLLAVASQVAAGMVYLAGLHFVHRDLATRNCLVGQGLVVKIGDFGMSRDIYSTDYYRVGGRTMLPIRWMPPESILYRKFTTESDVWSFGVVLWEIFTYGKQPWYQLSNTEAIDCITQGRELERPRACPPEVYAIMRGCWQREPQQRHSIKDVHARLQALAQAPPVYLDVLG
T2 sequence (Q16620 538-822 limits assumed): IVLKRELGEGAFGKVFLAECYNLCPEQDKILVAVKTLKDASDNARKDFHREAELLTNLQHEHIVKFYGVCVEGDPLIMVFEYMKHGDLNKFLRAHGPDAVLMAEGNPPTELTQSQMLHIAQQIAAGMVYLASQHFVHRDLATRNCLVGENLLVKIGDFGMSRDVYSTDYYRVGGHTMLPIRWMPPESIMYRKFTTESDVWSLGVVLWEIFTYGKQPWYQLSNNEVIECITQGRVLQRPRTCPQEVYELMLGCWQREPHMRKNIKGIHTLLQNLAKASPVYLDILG
T1 sequence (Q16288 whole entry F617L, the tested form may be a part): as the sequence (Q16288 whole entry, the tested form may be a part) above, with F617L counted along it
Sequence of SRC (P12931 whole entry, species assumed): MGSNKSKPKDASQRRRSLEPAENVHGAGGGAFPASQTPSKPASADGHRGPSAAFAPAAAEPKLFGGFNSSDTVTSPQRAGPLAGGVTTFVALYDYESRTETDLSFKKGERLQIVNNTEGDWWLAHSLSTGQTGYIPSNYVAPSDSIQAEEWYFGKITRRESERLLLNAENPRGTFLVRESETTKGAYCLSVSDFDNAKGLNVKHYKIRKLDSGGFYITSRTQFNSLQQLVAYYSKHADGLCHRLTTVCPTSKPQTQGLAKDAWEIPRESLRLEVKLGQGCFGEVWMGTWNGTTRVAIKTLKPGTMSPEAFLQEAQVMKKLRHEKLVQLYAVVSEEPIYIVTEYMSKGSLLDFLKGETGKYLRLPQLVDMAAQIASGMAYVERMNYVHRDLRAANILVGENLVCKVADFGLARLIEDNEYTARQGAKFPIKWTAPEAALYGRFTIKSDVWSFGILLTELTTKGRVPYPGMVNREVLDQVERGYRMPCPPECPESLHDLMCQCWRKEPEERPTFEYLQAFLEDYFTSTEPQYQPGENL
Sequence of Kit (P10721 26-976, species assumed): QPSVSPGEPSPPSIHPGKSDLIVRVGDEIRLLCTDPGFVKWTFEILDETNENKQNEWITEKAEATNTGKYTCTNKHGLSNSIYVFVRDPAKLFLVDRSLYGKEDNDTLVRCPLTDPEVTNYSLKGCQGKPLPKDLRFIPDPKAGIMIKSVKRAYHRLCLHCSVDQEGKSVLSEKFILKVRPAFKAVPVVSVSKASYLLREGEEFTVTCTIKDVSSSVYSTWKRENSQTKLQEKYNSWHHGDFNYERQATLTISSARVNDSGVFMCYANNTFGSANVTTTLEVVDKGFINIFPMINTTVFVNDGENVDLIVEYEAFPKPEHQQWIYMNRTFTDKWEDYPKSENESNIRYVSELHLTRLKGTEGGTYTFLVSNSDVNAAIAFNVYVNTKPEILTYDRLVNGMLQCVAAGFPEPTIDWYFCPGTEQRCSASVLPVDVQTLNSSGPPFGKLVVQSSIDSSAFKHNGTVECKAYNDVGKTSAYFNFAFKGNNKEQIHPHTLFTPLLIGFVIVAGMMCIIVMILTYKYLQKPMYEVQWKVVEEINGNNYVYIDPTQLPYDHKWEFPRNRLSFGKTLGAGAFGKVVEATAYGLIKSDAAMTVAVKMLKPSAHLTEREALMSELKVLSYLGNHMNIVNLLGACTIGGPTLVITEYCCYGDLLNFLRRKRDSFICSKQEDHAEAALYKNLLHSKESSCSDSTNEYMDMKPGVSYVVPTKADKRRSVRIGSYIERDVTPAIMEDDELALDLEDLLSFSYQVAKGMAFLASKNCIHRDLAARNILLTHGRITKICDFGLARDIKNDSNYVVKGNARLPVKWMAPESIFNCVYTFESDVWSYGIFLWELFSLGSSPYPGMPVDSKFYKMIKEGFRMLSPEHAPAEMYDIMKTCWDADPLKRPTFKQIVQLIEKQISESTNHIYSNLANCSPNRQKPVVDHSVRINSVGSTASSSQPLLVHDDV
Sequence of PDGFRA (P16234 24-1089, species assumed): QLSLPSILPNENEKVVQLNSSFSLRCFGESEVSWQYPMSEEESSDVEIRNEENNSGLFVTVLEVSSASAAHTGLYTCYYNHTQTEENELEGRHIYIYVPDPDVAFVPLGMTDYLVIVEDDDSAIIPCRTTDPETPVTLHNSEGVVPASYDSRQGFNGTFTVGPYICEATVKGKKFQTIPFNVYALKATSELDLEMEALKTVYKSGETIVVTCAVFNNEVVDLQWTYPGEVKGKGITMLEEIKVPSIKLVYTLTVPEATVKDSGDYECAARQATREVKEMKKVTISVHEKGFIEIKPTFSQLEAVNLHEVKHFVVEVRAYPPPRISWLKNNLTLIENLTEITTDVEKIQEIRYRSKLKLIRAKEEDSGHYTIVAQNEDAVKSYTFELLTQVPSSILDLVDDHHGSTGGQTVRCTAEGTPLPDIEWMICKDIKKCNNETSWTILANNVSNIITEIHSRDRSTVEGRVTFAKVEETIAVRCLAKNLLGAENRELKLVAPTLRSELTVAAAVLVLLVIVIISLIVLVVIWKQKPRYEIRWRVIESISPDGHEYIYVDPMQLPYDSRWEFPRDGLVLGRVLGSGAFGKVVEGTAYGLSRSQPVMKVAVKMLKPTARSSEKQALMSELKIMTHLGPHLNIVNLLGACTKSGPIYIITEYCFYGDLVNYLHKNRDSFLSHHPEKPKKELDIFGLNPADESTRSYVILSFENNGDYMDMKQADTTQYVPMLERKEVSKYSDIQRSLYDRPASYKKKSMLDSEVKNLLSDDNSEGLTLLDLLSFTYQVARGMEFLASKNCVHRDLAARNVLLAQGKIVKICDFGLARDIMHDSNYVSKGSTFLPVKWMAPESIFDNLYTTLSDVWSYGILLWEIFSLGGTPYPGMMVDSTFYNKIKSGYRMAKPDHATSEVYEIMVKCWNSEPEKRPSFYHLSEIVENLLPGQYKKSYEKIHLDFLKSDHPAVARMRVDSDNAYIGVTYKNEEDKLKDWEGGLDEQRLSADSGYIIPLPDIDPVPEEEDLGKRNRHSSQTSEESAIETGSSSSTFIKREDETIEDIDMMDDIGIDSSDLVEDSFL

Compound: Cc1c(C#Cc2cnc3ccc(N4CCC(O)CC4)nn23)cccc1C(=O)Nc1cc(CN2CCN(C)CC2)cc(C(F)(F)F)c1 [XS3-81, 3-((6-(4-HYDROXYPIPERIDIN-1-YL)IMIDAZO[1,2-B]PYRIDAZIN-3-YL)ETHYNYL)-2-METHYL-N-(3-(((4-METHYLPIPERAZIN-1-YL)METHYL)-5-(TRIFLUOROMETHYL)PHENYL)BENZAMIDE]
IC50 (BaF3-ETV6-NTRK3-F617L): 10 to 100 nM | IC50 (BaF3-ETV6-NTRK2): < 10 nM | IC50 (BaF3-CD74-NTRK1): 10 to 100 nM | IC50 (BaF3-ETV6-NTRK3): < 10 nM

IC50 (PDGFRA): 5890 nM | AUC(0-inf) [1, 2]: 549 µg·h/mL | AUC(0-t) [1, 2]: 358 µg·h/mL | Cmax [1, 2]: 46100 ng/mL | Tmax [1, 2]: 0.08 h | half-life [1, 2]: 16.1 h | clearance ([1]; Sprague-Dawley (SD), rat, plasma, intravenous injection, 2.0 mg/kg, read-out: Clearance rate (converted)): 3.65 mL/h/kg | AUC(0-inf) [1, 3]: 878 µg·h/mL | AUC(0-t) [1, 3]: 561 µg·h/mL | Cmax [1, 3]: 44100 ng/mL | Tmax [1, 3]: 4 h | half-life [1, 3]: 15.2 h | BA ([1]; oral 10.0 mg/kg vs intravenous 2.0 mg/kg): 31.32% | IC50 (PDGFRB): > 10000 nM | IC50 (SRC): 526 nM | IC50 (RET): > 10000 nM | IC50 (Kit): 1670 nM
Compound: Cc1c(C#Cc2cnc3ccc(N4CCC(O)CC4)nn23)cccc1C(=O)Nc1cc(Cl)cc(C(F)(F)F)c1 [XS3-55, N-(3-CHLORO-5-(TRIFLUOROMETHYL)PHENYL)-3-((6-(4-HYDROXYPIPERIDIN-1-YL)IMIDAZO[1,2-B]PYRIDAZINE-3-YL)ETHYNYL)-2-METHYLBENZAMIDE]
IC50 (BaF3-ETV6-NTRK3-F617L): 10 to 100 nM | IC50 (BaF3-CD74-NTRK1): 10 to 100 nM | IC50 (BaF3-ETV6-NTRK3): 10 to 100 nM

Compound: Cc1cn(-c2cc(NC(=O)c3cccc(C#Cc4cnc5ccc(N6CCC(O)CC6)nn45)c3C)cc(C(F)(F)F)c2)cn1 [XS3-87, 3-((6-(4-HYDROXYPIPERIDIN-1-YL)IMIDAZO[1,2-B]PYRIDAZIN-3-YL)ETHYNYL)-2-METHYL-N-(3-(4-METHYL-1H-IMIDAZOL-1-YL)-5-(TRIFLUOROMETHYL)PHENYL)BENZAMIDE]
IC50 (BaF3-ETV6-NTRK3-F617L): < 10 nM | IC50 (BaF3-ETV6-NTRK2): 10 to 100 nM | IC50 (BaF3-CD74-NTRK1): < 10 nM | IC50 (BaF3-ETV6-NTRK3): < 10 nM

Compound: Cc1c(C#Cc2cnc3ccc(N4CCOCC4)nn23)cccc1C(=O)Nc1cc(CN2CCN(C)CC2)cc(C(F)(F)F)c1 [XS3-68, 2-METHYL-N-(3-((4-METHYLPIPERAZIN-1-YL)METHYL)-5-(TRIFLUOROMETHYL)PHENYL)-3-((6-METHYLENE) LINOIMIDAZO[1,2-B]PYRIDAZIN-3-YL)ETHYNYL)BENZAMIDE]
IC50 (BaF3-ETV6-NTRK3-F617L): 10 to 100 nM | IC50 (BaF3-ETV6-NTRK2): 10 to 100 nM | IC50 (BaF3-CD74-NTRK1): < 10 nM | IC50 (BaF3-ETV6-NTRK3): < 10 nM
